In assay [1] the test system is Rattus norvegicus. In words: Anti-inflammatory activity in Rattus norvegicus Wistar albino (rat) assessed as inhibition of carrageenan-induced paw edema at 4 mg/kg, ip administered 30 min prior to carrageenan-challenge measured at 1 hr by plethysmometric analysis relative to control. It counts as functional. As to conditions: route intraperitoneal. On the technique in general: In the carrageenan paw model, swelling and tenderness develop within hours.

Assay [2] concerns Rattus norvegicus. In words: Anti-inflammatory activity in Rattus norvegicus Wistar albino (rat) assessed as inhibition of carrageenan-induced paw edema at 4 mg/kg, ip administered 30 min prior to carrageenan-challenge measured at 4 hr by plethysmometric analysis relative to control. It counts as functional. The settings on record: route intraperitoneal.
Assay [3] relates to Rattus norvegicus. In words: Anti-inflammatory activity in Rattus norvegicus Wistar albino (rat) assessed as inhibition of carrageenan-induced paw edema at 4 mg/kg, ip administered 30 min prior to carrageenan-challenge measured at 2 hr by plethysmometric analysis relative to control. It counts as functional. As to conditions: route intraperitoneal.
Assay [4] relates to Rattus norvegicus. In words: Anti-inflammatory activity in Rattus norvegicus Wistar albino (rat) assessed as inhibition of carrageenan-induced paw edema at 4 mg/kg, ip administered 30 min prior to carrageenan-challenge measured at 3 hr by plethysmometric analysis relative to control. It counts as functional. As to conditions: route intraperitoneal.
Assay [5] has as its system Candida albicans. In words: Antifungal activity against Candida albicans MTCC 227 after 24 hr by modified agar well diffusion assay. It counts as functional. (In agar diffusion tests the substance spreads into inoculated agar from a disc or well.)
Assay [6] has as its system Bacillus subtilis. In words: Antibacterial activity against Bacillus subtilis MTCC 121 at 4 mg/ml after 24 hr by agar well diffusion assay. The settings on record: MTCC 121, 24 h, read-out: DIZ. It counts as functional.
The test system of assay [7] is Saccharomyces cerevisiae. In words: Antifungal activity against Saccharomyces cerevisiae MTCC 170 after 24 hr by modified agar well diffusion assay. It counts as functional.
The test system of another assay is Escherichia coli. In words: Antibacterial activity against Escherichia coli MTCC 1652 at 4 mg/ml after 24 hr by agar well diffusion assay. It counts as functional, organism-based.
A further assay relates to Pseudomonas aeruginosa. In words: Antibacterial activity against Pseudomonas aeruginosa MTCC 741 at 4 mg/ml after 24 hr by agar well diffusion assay. It counts as functional, organism-based.
Assay [8] deals with Rattus norvegicus. In words: Anti-inflammatory activity in Rattus norvegicus Wistar albino (rat) assessed as inhibition of carrageenan-induced paw edema at 50 mg/kg, po administered 30 min prior to carrageenan-challenge measured at 4 hr by plethysmometric analysis relative to control. It counts as functional.
The subject of assay [9] is Saccharomyces cerevisiae. In words: Antifungal activity against Saccharomyces cerevisiae MTCC 170 at 4 mg/ml after 24 hr by agar well diffusion assay. It counts as functional. As to conditions: for zone of inhibition at 4000 µg/mL: MTCC 170, 24 h, read-out: DIZ.
In assay [10] the test system is Bacillus subtilis. In words: Antibacterial activity against Bacillus subtilis MTCC 121 after 24 hr by modified agar well diffusion assay. It counts as functional. As to conditions: MTCC 121, 24 h.
For assay [11], the system named is Rattus norvegicus. In words: Anti-inflammatory activity in Rattus norvegicus Wistar albino (rat) assessed as inhibition of carrageenan-induced paw edema at 50 mg/kg, po administered 30 min prior to carrageenan-challenge measured at 3 hr by plethysmometric analysis relative to control. It counts as functional.
Assay [12] deals with Candida albicans. In words: Antifungal activity against Candida albicans MTCC 227 at 4 mg/ml after 24 hr by agar well diffusion assay. It counts as functional. The settings on record: for zone of inhibition at 4000 µg/mL: MTCC 227, 24 h, read-out: DIZ.
Assay [13] deals with Rattus norvegicus. In words: Anti-inflammatory activity in Rattus norvegicus Wistar albino (rat) assessed as inhibition of carrageenan-induced paw edema at 50 mg/kg, po administered 30 min prior to carrageenan-challenge measured at 1 hr by plethysmometric analysis relative to control. It counts as functional.
Assay [14] relates to Staphylococcus aureus. In words: Antibacterial activity against Staphylococcus aureus MTCC 96 after 24 hr by modified agar well diffusion assay. It counts as functional. As to conditions: MTCC 96, 24 h.
Assay [15] relates to Rattus norvegicus. In words: Anti-inflammatory activity in Rattus norvegicus Wistar albino (rat) assessed as inhibition of carrageenan-induced paw edema at 50 mg/kg, po administered 30 min prior to carrageenan-challenge measured at 2 hr by plethysmometric analysis relative to control. It counts as functional.
Assay [16] deals with Staphylococcus aureus. In words: Antibacterial activity against Staphylococcus aureus MTCC 96 at 4 mg/ml after 24 hr by agar well diffusion assay. It counts as functional. As to conditions: MTCC 96, 24 h, read-out: DIZ.

Values after ≈ are worked out from the molar mass of the structure shown. Active and inactive are the calls of the source. The calls are words filed in the database; no cut-off is given here.

By inhibition in vivo is commonly meant how much of the control response was suppressed. As usually defined, the MIC is the lowest concentration that inhibits growth of the organism.

Turning to `COc1ccc2c(c1)c(CC(=O)O)c(C)n2C(=O)c1ccc(Cl)cc1` [INDOMETHACIN], the inhibition in vivo at 4 mg/kg with Rattus norvegicus [1] was determined as 69.6%; in the assay with Rattus norvegicus [2], 74.7%; in the assay on Rattus norvegicus [3], 81.9%; with Rattus norvegicus [4] it was 77.2%.
As for `COc1ccc(C2CC(c3ccc(Cl)cc3)=NN2c2ccc(S(N)(=O)=O)cc2)c(OC)c1` (stereo unspecified), the MIC against Candida albicans [5] (MTCC 227, 24 h) was found to be 128 µg/mL (≈ 271 µM); in the assay on Saccharomyces cerevisiae [7] (MTCC 170, 24 h) it was 64 µg/mL (≈ 136 µM); with Bacillus subtilis [10] it was 64 µg/mL (≈ 136 µM); in the assay on Staphylococcus aureus [14], 64 µg/mL (≈ 136 µM). Besides, the zone of inhibition at 4000 µg/mL in the assay with Bacillus subtilis [6] is 19.3 mm; in the assay with Saccharomyces cerevisiae [9], 16 mm; in the assay on Candida albicans [12], 13.6 mm; in the assay with Staphylococcus aureus [16], 18.3 mm. The outcome in the assay with Escherichia coli and in the assay on Pseudomonas aeruginosa was inactive. Besides, the inhibition in vivo at 50 mg/kg was found to be 32.9% in the assay on Rattus norvegicus [8], 57.2% in the assay with Rattus norvegicus [11], 43.5% in the assay with Rattus norvegicus [13] and 48.8% with Rattus norvegicus [15].
With `COc1ccc(C2CC(c3ccc(Cl)cc3)=NN2c2ccc(S(N)(=O)=O)cc2)cc1OC` (stereo unspecified), the MIC entry in the assay on Candida albicans [5] and in the assay on Saccharomyces cerevisiae [7] was “inactive” each time. The zone of inhibition at 4000 µg/mL in the assay with Bacillus subtilis [6] worked out at 17.3 mm; in the assay on Staphylococcus aureus [16], 13.6 mm. Further, the result in the assay with Escherichia coli and in the assay with Pseudomonas aeruginosa was inactive. Also, the inhibition in vivo at 50 mg/kg with Rattus norvegicus [8] stood at 49.5%; in the assay on Rattus norvegicus [11], 68.3%; in the assay with Rattus norvegicus [13] it was 57.9%; in the assay with Rattus norvegicus [15], 64.6%. For the same molecule, the “diameter of the inhibition zone (DIZ)” value in the assay with Saccharomyces cerevisiae [9] and with Candida albicans [12] was “inactive” each time. For the same molecule, the minimum inhibitory concentration (MIC) against Bacillus subtilis [10] was 128 µg/mL (≈ 271 µM); in the assay with Staphylococcus aureus [14], 256 µg/mL (≈ 542 µM).
For `COc1cccc(C2CC(c3ccc(F)cc3)=NN2c2ccc(S(N)(=O)=O)cc2)c1OC` (stereo unspecified), the MIC against Candida albicans [5] (MTCC 227, 24 h) was 128 µg/mL (≈ 281 µM); with Saccharomyces cerevisiae [7] (MTCC 170, 24 h), 64 µg/mL (≈ 141 µM); in the assay on Bacillus subtilis [10], 64 µg/mL (≈ 141 µM); against Staphylococcus aureus [14], 128 µg/mL (≈ 281 µM). Besides, the zone of inhibition at 4000 µg/mL in the assay with Bacillus subtilis [6] was found to be 18.3 mm; in the assay on Saccharomyces cerevisiae [9], 15.6 mm; in the assay on Candida albicans [12], 13.6 mm; with Staphylococcus aureus [16], 17.6 mm. Besides, the outcome in the assay on Escherichia coli and in the assay on Pseudomonas aeruginosa was inactive. In addition, the inhibition in vivo at 50 mg/kg with Rattus norvegicus [8] came to 51.5%; in the assay on Rattus norvegicus [11], 53.8%; in the assay with Rattus norvegicus [13], 59.4%; with Rattus norvegicus [15] it was 40.1%.

These data come from ChEMBL document CHEMBL3044986, “Synthesis of 1-(4-aminosulfonylphenyl)-3,5-diarylpyrazoline derivatives as potent antiinflammatory and antimicrobial agents” (2012).
